Results taken from article PMC8119466, “A screen of FDA-approved drugs identifies inhibitors of protein tyrosine phosphatase 4A3 (PTP4A3 or PRL-3)” (Scientific Reports, 2021).
Structures can show the parent of a compound that is named as a salt. Where two headings read alike, the source gives them in different places.

Columns and labels:
Type in all cases: biochemical
recombinant PRL-3 = target: T1, recombinant PRL-3 (Homo sapiens, UniProt O75365); experiment: In vitro phosphatase assay (DiFMUP hydrolysis), PRL-3; also: test concentration or dose not given here
T1 construct: 6xHis (N, cleaved yes); made in house; host or cells: E. coli One Shot BL21 Star

recombinant PRL-1 = target: T2, recombinant PRL-1 (Homo sapiens, UniProt Q93096); experiment: In vitro phosphatase assay (DiFMUP hydrolysis), PRL-1; also: test concentration or dose not given here
T2 construct: 6xHis (N, cleaved yes); made in house; host or cells: E. coli One Shot BL21 Star
T2 sequence (Q93096 1-173): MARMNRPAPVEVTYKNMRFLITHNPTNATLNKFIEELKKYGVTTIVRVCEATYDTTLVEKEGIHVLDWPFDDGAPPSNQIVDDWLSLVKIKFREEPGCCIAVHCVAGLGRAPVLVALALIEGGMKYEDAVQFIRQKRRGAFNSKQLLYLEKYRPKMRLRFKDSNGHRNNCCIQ

recombinant PRL-2 = target: T3, recombinant PRL-2 (Homo sapiens, UniProt Q12974); experiment: In vitro phosphatase assay (DiFMUP hydrolysis), PRL-2;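 also: PRL-2 activity read as DiFMUP hydrolysis after 20 min at room temperature with drug, enzyme first pre-reduced at 4 °C for 20 min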
T3 construct: 6xHis (N, cleaved yes); made in house; host or cells: E. coli One Shot BL21 Star
T3 sequence (Q12974 1-167): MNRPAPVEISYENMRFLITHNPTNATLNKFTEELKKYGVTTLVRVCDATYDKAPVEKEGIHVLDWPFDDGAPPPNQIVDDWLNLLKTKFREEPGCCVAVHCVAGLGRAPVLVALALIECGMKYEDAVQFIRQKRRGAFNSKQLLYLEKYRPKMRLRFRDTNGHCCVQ

[1] = FDA-approved drug screen, activity compared to DMSO

T1 sequence (O75365 whole entry): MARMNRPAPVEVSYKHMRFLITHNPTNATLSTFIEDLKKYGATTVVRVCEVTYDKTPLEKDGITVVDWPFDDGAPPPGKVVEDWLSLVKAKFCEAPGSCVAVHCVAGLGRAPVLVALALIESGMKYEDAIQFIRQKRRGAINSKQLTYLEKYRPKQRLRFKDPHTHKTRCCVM

Structure (SMILES)	% Phosphatase Activity (compared to DMSO) PRL-3 (recombinant PRL-3; [1])	% Phosphatase Activity (compared to DMSO) PRL-1 (recombinant PRL-1; [1])	% Phosphatase Activity (compared to DMSO) PRL-2 (recombinant PRL-2; [1])	% Phosphatase Activity (compared to DMSO) PRL-3 (recombinant PRL-3)	% Phosphatase Activity (compared to DMSO) PRL-1 (recombinant PRL-1)	% Phosphatase Activity (compared to DMSO) PRL-2 (recombinant PRL-2)
Cc1ccc(S(=O)(=O)NC(=O)NN2CCCCCC2)cc1 [Tolazamide]	82%	81%	84%	–	–	–
c1ccc(CC2=NCCN2)cc1 [Tolazoline HCl]	91%	100%	110%	–	–	–
CCCCNC(=O)NS(=O)(=O)c1ccc(C)cc1 [Tolbutamide]	91%	104%	119%	–	–	–
Cc1ccc(C(=O)c2cc(O)c(O)c([N+](=O)[O-])c2)cc1 [Tolcapone]	71%	78%	89%	–	–	–
Cc1c(Cl)cccc1Nc1ccccc1C(=O)O [Tolfenamic Acid]	86%	97%	86%	–	–	–
Cc1ccc(C(=O)c2ccc(CC(=O)O)n2C)cc1 [Tolmetin Sodium]	111%	95%	79%	–	–	–
Cc1cccc(N(C)C(=S)Oc2ccc3ccccc3c2)c1 [Tolnaftate]	89%	98%	114%	–	–	–
Cc1ccc(C(=O)C(C)CN2CCCCC2)cc1.Cl (stereo not drawn) [Tolperisone HCl]	71%	91%	108%	–	–	–
Cc1ccc(O)c([C@H](CCN(C(C)C)C(C)C)c2ccccc2)c1 [Tolterodine tartrate]	93%	98%	110%	–	–	–
Cc1cc(-n2c(=O)[nH]c(=O)n(C)c2=O)ccc1Oc1ccc(SC(F)(F)F)cc1 [Toltrazuril]	73%	88%	93%	–	–	–
Cc1ccccc1C(=O)Nc1ccc(C(=O)N2CCCC(O)c3cc(Cl)ccc32)c(C)c1 (stereo not drawn) [Tolvaptan]	101%	97%	143%	–	–	–
CC1(C)O[C@@H]2[C@@H](CO[C@@]3(COS(N)(=O)=O)OC(C)(C)O[C@@H]23)O1 [Topiramate]	99%	118%	122%	–	–	–
CC[C@@]1(O)C(=O)OCc2c1cc1n(c2=O)Cc2cc3c(CN(C)C)c(O)ccc3nc2-1 [Topotecan HCl]	140%	168%	192%	–	–	–
CN(C)CCOc1ccc(/C(=C(/CCCl)c2ccccc2)c2ccccc2)cc1 [Toremifene Citrate]	103%	95%	105%	–	–	–
Cc1cccc(Nc2ccncc2S(=O)(=O)NC(=O)NC(C)C)c1 [Torsemide]	77%	99%	93%	–	–	–
CC(=O)Nc1cccc(-n2c(=O)n(C3CC3)c(=O)c3c(Nc4ccc(I)cc4F)n(C)c(=O)c(C)c32)c1 [Trametinib (GSK1120212)]	88%	88%	112%	–	–	–
NC[C@H]1CC[C@H](C(=O)O)CC1 [Tranexamic Acid]	96%	92%	89%	–	–	–
COc1ccc(/C=C/C(=O)Nc2ccccc2C(=O)O)cc1OC [Tranilast]	82%	88%	73%	–	–	–
O=c1n(CCCN2CCN(c3cccc(Cl)c3)CC2)nc2ccccn12 [Trazodone HCl]	93%	146%	142%	–	–	–
Cn1c(=O)cc(N2CCC[C@@H](N)C2)n(Cc2cc(F)ccc2C#N)c1=O [Trelagliptin]	107%	106%	76%	–	–	–

Structure (SMILES)	% Phosphatase Activity (compared to DMSO) PRL-3 (recombinant PRL-3; [1])	% Phosphatase Activity (compared to DMSO) PRL-1 (recombinant PRL-1; [1])	% Phosphatase Activity (compared to DMSO) PRL-2 (recombinant PRL-2; [1])	% Phosphatase Activity (compared to DMSO) PRL-3 (recombinant PRL-3)	% Phosphatase Activity (compared to DMSO) PRL-1 (recombinant PRL-1)	% Phosphatase Activity (compared to DMSO) PRL-2 (recombinant PRL-2)
CC1=C(/C=C/C(C)=C/C=C/C(C)=C/C(=O)O)C(C)(C)CCC1 [Tretinoin]	46%	78%	77%	–	–	–
CC(=O)OCC(COC(C)=O)OC(C)=O [Triacetin]	85%	93%	96%	–	–	–
CC1(C)O[C@@H]2C[C@H]3[C@@H]4CCC5=CC(=O)C=C[C@]5(C)[C@@]4(F)[C@@H](O)C[C@]3(C)[C@]2(C(=O)CO)O1 [Triamcinolone Acetonide]	78%	99%	95%	–	–	–
C[C@]12C=CC(=O)C=C1CC[C@H]1[C@@H]3C[C@@H](O)[C@](O)(C(=O)CO)[C@@]3(C)C[C@H](O)[C@@]12F [Triamcinolone]	81%	91%	97%	–	–	–
Nc1nc(N)c2nc(-c3ccccc3)c(N)nc2n1 [Triamterene]	3828%	7090%	6324%	–	–	–
NS(=O)(=O)c1cc2c(cc1Cl)NC(C(Cl)Cl)NS2(=O)=O (stereo not drawn) [Trichlormethiazide]	75%	100%	93%	–	–	–
CSc1nc2cc(Cl)c(Oc3cccc(Cl)c3Cl)cc2[nH]1 [Triclabendazole]	70%	106%	91%	–	–	–
Oc1cc(Cl)ccc1Oc1ccc(Cl)cc1Cl [Triclosan]	96%	100%	106%	–	–	–
O=c1[nH]c(=O)n([C@H]2C[C@H](O)[C@@H](CO)O2)cc1C(F)(F)F [Trifluridine]	91%	89%	101%	–	–	–
CC(=O)Oc1cc(C(F)(F)F)ccc1C(=O)O [Triflusal]	78%	108%	105%	–	–	–
OC(CCN1CCCCC1)(c1ccccc1)C1CCCCC1 (stereo not drawn) [Trihexyphenidyl hydrochloride]	–	–	–	106%	100%	98%
C[C@]12CC[C@H]3[C@@H](CC[C@@]45O[C@@H]4C(O)=C(C#N)C[C@]35C)[C@@H]1CC[C@@H]2O [Trilostane]	88%	97%	110%	–	–	–
CCC(COC(=O)c1cc(OC)c(OC)c(OC)c1)(c1ccccc1)N(C)C (stereo not drawn) [Trimebutine]	84%	90%	106%	–	–	–
COc1ccc(CN2CCNCC2)c(OC)c1OC [Trimetazidine dihydrochloride]	80%	95%	93%	–	–	–
CC(CN(C)C)CN1c2ccccc2CCc2ccccc21 (stereo not drawn) [Trimipramine Maleate]	90%	94%	97%	–	–	–
CN(C)CCN(Cc1ccccc1)c1ccccn1 [Tripelennamine HCl]	112%	91%	119%	–	–	–
NC(CO)(CO)CO [Trometamol]	–	–	–	82%	102%	105%
O=C(O[C@H]1C[C@H]2CC[C@@H](C1)[N+]21CCCC1)C(O)(c1ccccc1)c1ccccc1 [Trospium chloride]	83%	109%	109%	–	–	–
COc1cc(C(=O)NC2CCCNC2)cc(OC)c1OC (stereo not drawn) [Troxipide]	79%	95%	110%	–	–	–
CC[C@H]1OC(=O)C[C@@H](O)[C@H](C)[C@@H](O[C@@H]2O[C@H](C)[C@@H](O[C@H]3C[C@@](C)(O)[C@@H](O)[C@H](C)O3)[C@H](N(C)C)[C@H]2O)[C@@H](CC=O)C[C@@H](C)C(=O)/C=C/C(C)=C/[C@@H]1CO[C@@H]1O[C@H](C)[C@@H](O)[C@@H](OC)[C@H]1OC.O=C(O)C(O)C(O)C(=O)O [Tylosin tartrate]	81%	95%	93%	–	–	–
